Data from patent US11872313B2, “Prodrug compositions, prodrug nanoparticles, and methods of use thereof” (Washington University, priority 2010, dated 2024).
“Also recorded” adds a separate entry of the source.

What was measured:
[1] = In vitro release of fumagillin dissolved in a lipid membrane; type: physicochemical; conditions: FIG. 19A
Text: (§1) FIG. 19A and FIG. 19B depicts two graphs illustrating that fumagillin dissolved in a lipid membrane is stable in vitro but rapidly lost in vivo.

[2] = In vivo release of fumagillin dissolved in a lipid membrane; conditions: FIG. 19B
Text: as §1

[3] = test system: Vx2 tumor; experiment: Vx2 tumor model, angiogenesis MR contrast enhancement; type: in vivo, rabbit; conditions: 1.5 T, FIG. 4A

SMILES	In vitro release of fumagillin [1]	In vivo release of fumagillin [2]	change in angiogenesis contrast enhancement [3]
CO[C@@H]1[C@H](OC(=O)/C=C/C=C/C=C/C=C/C(=O)O)CC[C@]2(CO2)[C@H]1[C@@]1(C)O[C@@H]1CC=C(C)C [fumagillin]	sustained over 4 days	rapidly releases in vivo; also recorded: occurs in a matter of minutes	
CC(=O)O[C@H]1C(=O)[C@@]2(C)[C@H]([C@H](OC(=O)c3ccccc3)[C@]3(O)C[C@H](OC(=O)[C@H](O)[C@@H](NC(=O)c4ccccc4)c4ccccc4)C(C)=C1C3(C)C)[C@]1(OC(C)=O)CO[C@@H]1C[C@@H]2O [non-prodrug paclitaxel, paclitaxel]			non-significant change
